Patent publication US20100021895A1, “Vectors for Inducing Homozygous Mutations and Methods of Using Same” (priority 2006, published 2010)

Tested on: mouse embryonic stem cell clones, each containing a neomycin resistance gene (Neo) inserted by the GTR1.3 gene trap retrovirus
Assay: Carcinogen-induced LOH: frequency of colony formation in 2.0 mg/ml G418
Format: cell-based
Settings: for enhanced colony formation, average: at least 25 entrapment lines
Description: Carcinogen-induced LOH was measured in a panel of 53 mouse embryonic stem cell clones, each containing a neomycin resistance gene (Neo) inserted into a different cellular gene (FIG. 9) by the GTR1.3 gene trap retrovirus. Gene entrapment by GTR1.3 involves selection for inserted Neo sequences that can splice to the 3′ ends of cellular genes (Lin et al.,). The disrupted genes were identified by sequencing Neo-gene fusion transcripts and were localized on the mouse genome. Previous studies have shown that cells homozygous for GTR1.3-induced mutations can be selected from heterozygous cells simply by selecting for resistance to higher concentrations of G418, a method first shown to select for homozygous mutations induced by gene targeting (15). Mitotic recombination appears to be the preferred mechanism of spontaneous LOH involving Neo genes inserted in ES cells (17) and LOH involving other genes and cell types in vivo (12, 13). LOH doubles the number of Neo genes per cell and thus allows moderately resistant cells to acquire resistance to higher concentrations of G418. The frequencies of spontaneous LOH measured at the 53 different sites ranged from 1.3×10^−5 to 1.2×10^−4 (Table 3), similar to those reported for other inserted neomycin resistance genes (15, 17) in ES cells and for loci such as TK and APRT in other cell types (12, 13).
A variety of chemical agents were tested for their ability to enhance the frequencies at which mutant cells survive in 2.0 mg/ml G418. Methyl-nitrosurea (MNU) is an alkylating agent that produces a variety of mono-methylated DNA adducts, hydroxyurea (HU) stalls DNA replication complexes, doxorubicin interferes with DNA synthesis, methothrexate is a competitive inhibitor of dihydrofolate reductase but is not genotoxic, diepoxybutane and mitomycin C induce inter-strand DNA crosslinks, UV irradiation causes intra- and inter-strand pyrimidine dimmers, and ethidium bromide intercalates between DNA strands to damage DNA (For additional information about these agents see http://toxnet.nlm.nih.gov and http://lisntweb.swan.ac.uk/cmgt/index.htm). […] The fold-increase for MNU and HU ranged from 39-123 and 18-68, respectively (Table 3). The optimal concentrations of each agent to stimulate colony formation with minimal toxicity (<5% loss of cell viability) were determined in advance (FIG. 13). […] Each of these agents was tested two or more times on at least 25 entrapment lines.
Serially diluted cells were plated onto 150 mm plates containing drug-free media and allowed to attach overnight. Unattached cells were removed and media containing the indicated concentrations of methyl-nitrosourea, hydroxyurea, ethidium bromide, doxorubicin, methotrexate, diepoxybutane, or mitomycin C was put onto cells for 4 hours (or cells were exposed to ultraviolet light in the absence of media and allowed to recover in drug-free media for 4 hours). Cells were then rinsed twice with drug-free media and selection media containing 0.0, 0.3, or 2.0 mg/ml G418 was put onto cells. After 12 days of selection, the number of colonies surviving was counted and the frequency of colony formation was determined by dividing the number of colonies obtained from 2.0 mg/ml G418 selection to that obtained from parallel experiments with 0.3 mg/ml G418 selection. TK gene loss was assessed following selection in media containing 2 μg/ml gancyclovir.
Table 3. The frequency of colony formation in high concentrations of G418. The frequency of colony formation is listed for all 53 clones examined. Frequency was determined by dividing the number of colonies surviving 2.0 mg/ml G418 selection to the number surviving parallel experiments with 0.3 mg/ml G418 selection, and is the average of at least 3 independent experiments for each clone. Standard deviations, which ranged from 5 to 70% of the mean values, have been omitted for clarity. […]

COc1cccc2c1C(=O)c1c(O)c3c(c(O)c1C2=O)C[C@@](O)(C(=O)CO)C[C@@H]3O[C@H]1C[C@H](N)[C@H](O)[C@H](C)O1 [doxorubicin]
enhanced colony formation, average (doxorubicin 0.1 μM): 15 fold

CN(Cc1cnc2nc(N)nc(N)c2n1)c1ccc(C(=O)N[C@@H](CCC(=O)O)C(=O)O)cc1 [methothrexate]
effect on colony formation in high G418 (methothrexate 50 μM): no significant effect

C1OC1C1CO1 (stereo not drawn) [diepoxybutane]
survival of mutant ES cells in media containing 2.0 mg/ml G418 (ES cells heterozygous for Xrcc5 entrapment mutation, 4 hours with 0.5 mM methyl-nitrosourea, 0.25 mM hydroxyurea or 100 ng/ml diepoxybutane): enhances the survival | enhanced colony formation, average (diepoxybutane 100 ng/mL): 16 fold

CO[C@@]12[C@H](COC(N)=O)C3=C(C(=O)C(C)=C(N)C3=O)N1C[C@@H]1N[C@@H]12 [mitomycin C]
enhanced colony formation, average (mitomycin C 50 ng/mL): 14 fold

CC[n+]1c(-c2ccccc2)c2cc(N)ccc2c2ccc(N)cc21 [EtBr, ethidium bromide]
effect on colony formation in high G418 (ethidium bromide 25 μg/ml): no significant effect
